Tested on: mutant Huntington (HTT) protein
Test: HTT Mutant HTRF iPSC assay (mHTT protein lowering)
Type: cell-based
Conditions: human iPSC derived from a HTT patient with a poly-Q49 mutation

| Structure (SMILES) | IC50 |
| --- | --- |
| Cc1cn2cc(NC(=O)c3cc4ccc(N5C[C@H]6CN(C)C[C@H]6C5)nc4s3)ccc2n1 [Compound 21, 6-((3aR,6aS)-5-methylhexahydropyrrolo[3,4-c]pyrrol-2(1H)-yl)-N-(2-methylimidazo[1,2-a]pyridin-6-yl)thieno[2,3-b]pyridine-2-carboxamide] | 100 to 1000 nM |
| Cc1cn2cc(NC(=O)c3cc4ccc(N5CC(N(C)C)C5)nc4s3)ccc2n1 [Compound 22, 6-(3-(dimethylamino)azetidin-1-yl)-N-(2-methylimidazo[1,2-a]pyridin-6-yl)thieno[2,3-b]pyridine-2-carboxamide] | 1000 to 9000 nM |
| Cc1cn2cc(NC(=O)c3cc4ccc(N(C)CCN(C)C)nc4s3)ccc2n1 [Compound 23, 6-((2-(dimethylamino)ethyl)(methyl)amino)-N-(2-methylimidazo[1,2-a]pyridin-6-yl)thieno[2,3-b]pyridine-2-carboxamide] | 100 to 1000 nM |
| Cc1cn2cc(NC(=O)c3cc4ccc(N5C[C@@H]6[C@H](C5)[C@H]6N(C)C)nc4s3)ccc2n1 [Compound 24, 6-((1R,5S,6s)-6-(dimethylamino)-3-azabicyclo[3.1.0]hexan-3-yl)-N-(2-methylimidazo[1,2-a]pyridin-6-yl)thieno[2,3-b]pyridine-2-carboxamide] | 1000 to 9000 nM |
| Cc1cn2cc(NC(=O)c3cc4ccc(N5CC6CCC5CN6C)nc4s3)ccc2n1 (stereo not drawn) [Compound 27, 6-(5-methyl-2,5-diazabicyclo[2.2.2]octan-2-yl)-N-(2-methylimidazo[1,2-a]pyridin-6-yl)thieno[2,3-b]pyridine-2-carboxamide] | 100 to 1000 nM |
| CC(=O)N1C[C@@H]2CN(c3ccc4cc(C(=O)Nc5ccc6nc(C)cn6c5)sc4n3)C[C@@H]2C1 [Compound 29, 6-((3aR,6aS)-5-acetylhexahydropyrrolo[3,4-c]pyrrol-2(1H)-yl)-N-(2-methylimidazo[1,2-a]pyridin-6-yl)thieno[2,3-b]pyridine-2-carboxamide] | 1000 to 9000 nM |
| Cc1cn2cc(NC(=O)c3cc4ccc(N5CCN(C)c6ncccc6C5)nc4s3)ccc2n1 [Compound 31, 6-(1-methyl-1,2,3,5-tetrahydro-4H-pyrido[2,3-e][1,4]diazepin-4-yl)-N-(2-methylimidazo[1,2-a]pyridin-6-yl)thieno[2,3-b]pyridine-2-carboxamide] | 100 to 1000 nM |
| Cc1cn2cc(NC(=O)c3cc4ccc(N5CC6CCC(N(C)C)CC6C5)nc4s3)ccc2n1 (stereo not drawn) [Compound 32, 6-(5-(dimethylamino)octahydro-2H-isoindol-2-yl)-N-(2-methylimidazo[1,2-a]pyridin-6-yl)thieno[2,3-b]pyridine-2-carboxamide] | 1000 to 9000 nM |
| Cc1cn2cc(NC(=O)c3cc4ccc(N5C[C@@H](C)N(CC(F)(F)F)[C@@H](C)C5)nc4s3)ccc2n1 [Compound 33] | 100 to 1000 nM |
| Cc1cn2cc(NC(=O)c3cc4ccc(N5CCC(N6CC(C)(C)C6)C5)nc4s3)ccc2n1 (stereo not drawn) [Compound 35, 6-(3-(3,3-dimethylazetidin-1-yl)pyrrolidin-1-yl)-N-(2-methylimidazo[1,2-a]pyridin-6-yl)thieno[2,3-b]pyridine-2-carboxamide] | 100 to 1000 nM |
| Cc1cn2cc(NC(=O)c3cc4ccc(N5CCC6C(CCCN6C)C5)nc4s3)ccc2n1 (stereo not drawn) [Compound 36, N-(2-methylimidazo[1,2-a]pyridin-6-yl)-6-(1-methyloctahydro-1,6-naphthyridin-6(2H)-yl)thieno[2,3-b]pyridine-2-carboxamide] | 100 to 1000 nM |
| Cc1cn2cc(NC(=O)c3cc4ccc(N(C)C5CN6CCC5CC6)nc4s3)ccc2n1 (stereo not drawn) [Compound 38, 6-(methyl(quinuclidin-3-yl)amino)-N-(2-methylimidazo[1,2-a]pyridin-6-yl)thieno[2,3-b]pyridine-2-carboxamide] | 100 to 1000 nM |
| Cc1cn2cc(NC(=O)c3cc4ccc(Nc5ccc(CN6CCCC6)cc5)nc4s3)ccc2n1 [Compound 39, N-(2-methylimidazo[1,2-a]pyridin-6-yl)-6-((4-(pyrrolidin-1-ylmethyl)phenyl)amino)thieno [2,3-b]pyridine-2-carboxamide] | 1000 to 9000 nM |
| Cc1cn2cc(NC(=O)c3cc4ccc(N5CCCN(C)CC5)nc4s3)ccc2n1 [Compound 40, 6-(4-methyl-1,4-diazepan-1-yl)-N-(2-methylimidazo[1,2-a]pyridin-6-yl)thieno[2,3-b]pyridine-2-carboxamide] | 100 to 1000 nM |
| Cc1cn2cc(NC(=O)c3cc4ccc(NCC(C)(C)CN(C)C)nc4s3)ccc2n1 [Compound 41, 6-((3-(dimethylamino)-2,2-dimethylpropyl)amino)-N-(2-methylimidazo[1,2-a]pyridin-6-yl)thieno[2,3-b]pyridine-2-carboxamide] | 1000 to 9000 nM |
| Cc1cn2cc(NC(=O)c3cc4ccc(Nc5cccc(N6CC(C)(C)C6)c5)nc4s3)ccc2n1 [Compound 42, 6-((3-(3,3-dimethylazetidin-1-yl)phenyl)amino)-N-(2-methylimidazo[1,2-a]pyridin-6-yl)thieno[2,3-b]pyridine-2-carboxamide] | 1000 to 9000 nM |
| Cc1cn2cc(NC(=O)c3cc4ccc(Nc5ccc(N6CC(C)(C)C6)cc5)nc4s3)ccc2n1 [Compound 44, 6-((4-(3,3-dimethylazetidin-1-yl)phenyl)amino)-N-(2-methylimidazo[1,2-a]pyridin-6-yl)thieno[2,3-b]pyridine-2-carboxamide] | 1000 to 9000 nM |

| Structure (SMILES) | IC50 |
| --- | --- |
| Cc1cn2cc(NC(=O)c3cc4ccc(N5CC6CCCN6CC5C)nc4s3)ccc2n1 (stereo not drawn) [Compound 45, 6-(3-methylhexahydropyrrolo[1,2-a]pyrazin-2(1H)-yl)-N-(2-methylimidazo[1,2-a]pyridin-6-yl)thieno[2,3-b]pyridine-2-carboxamide] | 100 to 1000 nM |
| CCN1Cc2cccc(Nc3ccc4cc(C(=O)Nc5ccc6nc(C)cn6c5)sc4n3)c2C1 [Compound 46, 6-((2-ethylisoindolin-4-yl)amino)-N-(2-methylimidazo[1,2-a]pyridin-6-yl)thieno[2,3-b]pyridine-2-carboxamide] | 1000 to 9000 nM |
| Cc1cn2cc(NC(=O)c3cc4ccc(Nc5ccc6c(c5)N(C)CCN(C)C6)nc4s3)ccc2n1 [Compound 47, 6-((1,4-dimethyl-2,3,4,5-tetrahydro-1H-benzo[e][1,4]diazepin-8-yl)amino)-N-(2-methylimidazo[1,2-a]pyridin-6-yl)thieno[2,3-b]pyridine-2-carboxamide] | 1000 to 9000 nM |
| Cc1cn2cc(NC(=O)c3cc4ccc(N5CCC5CN(C)C)nc4s3)ccc2n1 (stereo not drawn) [Compound 48, 6-(2-((dimethylamino)methyl)azetidin-1-yl)-N-(2-methylimidazo[1,2-a]pyridin-6-yl)thieno[2,3-b]pyridine-2-carboxamide] | 1000 to 9000 nM |
| CN(C)C1CCN(c2ccc3cc(C(=O)Nc4ccc5[nH]c(=O)n(C)c5c4)sc3n2)C1 (stereo not drawn) [Compound 49, 6-(3-(dimethylamino)pyrrolidin-1-yl)-N-(3-methyl-2-oxo-2,3-dihydro-1H-benzo[d]imidazol-5-yl)thieno[2,3-b]pyridine-2-carboxamide] | 1000 to 9000 nM |
| Cc1cn2cc(NC(=O)c3cc4ccc(N5CC[C@H](N(C)C)C5)nc4s3)nc(C)c2n1 [Compound 50, (S)-6-(3-(dimethylamino)pyrrolidin-1-yl)-N-(2,8-dimethylimidazo[1,2-a]pyrazin-6-yl)thieno[2,3-b]pyridine-2-carboxamide] | 100 to 1000 nM |
| Cc1cn2cc(NC(=O)c3cc4ccc(N5CC[C@@H](N(C)C)C5)nc4s3)nc(C)c2n1 [Compound 51, (R)-6-(3-(dimethylamino)pyrrolidin-1-yl)-N-(2,8-dimethylimidazo[1,2-a]pyrazin-6-yl)thieno[2,3-b]pyridine-2-carboxamide] | < 100 nM |
| Cc1cn2nc(NC(=O)c3cc4ccc(N5CC[C@H](N(C)C)C5)nc4s3)ccc2n1 [Compound 52, (S)-6-(3-(dimethylamino)pyrrolidin-1-yl)-N-(2-methylimidazo[1,2-b]pyridazin-6-yl)thieno[2,3-b]pyridine-2-carboxamide] | 100 to 1000 nM |
| Cc1cn2nc(NC(=O)c3cc4ccc(N5CC[C@@H](N(C)C)C5)nc4s3)ccc2n1 [Compound 53, (R)-6-(3-(dimethylamino)pyrrolidin-1-yl)-N-(2-methylimidazo[1,2-b]pyridazin-6-yl)thieno[2,3-b]pyridine-2-carboxamide] | 1000 to 9000 nM |
| Cc1cn2cc(NC(=O)c3cc4ccc(N5CC[C@H](N(C)C)C5)nc4s3)cc(F)c2n1 [Compound 54, 6-[(3S)-3-(dimethylamino)pyrrolidin-1-yl]-N-(8-fluoro-2-methyl-imidazo[1,2-a]pyridin-6-yl)thieno[2,3-b]pyridine-2-carboxamide] | < 100 nM |
| Cc1cn2cc(NC(=O)c3cc4ccc(N5CC[C@@H](N(C)C)C5)nc4s3)cc(F)c2n1 [Compound 55, 6-[(3R)-3-(dimethylamino)pyrrolidin-1-yl]-N-(8-fluoro-2-methyl-imidazo[1,2-a]pyridin-6-yl)thieno[2,3-b]pyridine-2-carboxamide] | < 100 nM |
| Cc1cn2nc(NC(=O)c3cc4ccc(N5CC[C@@H](N(C)C)C5)nc4s3)cc(C)c2n1 [Compound 56, (R)-6-(3-(dimethylamino)pyrrolidin-1-yl)-N-(2,8-dimethylimidazo[1,2-b]pyridazin-6-yl)thieno[2,3-b]pyridine-2-carboxamide] | 1000 to 9000 nM |
| Cc1cn2cc(NC(=O)c3cc4ccc(N5CCCC5)nc4s3)nc(C)c2n1 [Compound 57, N-(2,8-dimethylimidazo[1,2-a]pyrazin-6-yl)-6-(pyrrolidin-1-yl)thieno[2,3-b]pyridine-2-carboxamide] | 1000 to 9000 nM |
| CN(C)C1CCN(c2ccc3cc(C(=O)Nc4ccc5c(c4)n(C)c(=O)n5C)sc3n2)C1 (stereo not drawn) [Compound 58, N-(1,3-dimethyl-2-oxo-2,3-dihydro-1H-benzo[d]imidazol-5-yl)-6-(3-(dimethylamino)pyrrolidin-1-yl)thieno[2,3-b]pyridine-2-carboxamide] | 1000 to 9000 nM |
| CN(C)C1CCN(c2ccc3cc(C(=O)Nc4ccc5sc(=O)n(C)c5c4)sc3n2)C1 (stereo not drawn) [Compound 59, 6-(3-(dimethylamino)pyrrolidin-1-yl)-N-(3-methyl-2-oxo-2,3-dihydrobenzo[d]thiazol-5-yl)thieno[2,3-b]pyridine-2-carboxamide] | 1000 to 9000 nM |
| CN(C)C1CCN(c2ccc3cc(C(=O)Nc4cnn5c(C(F)(F)F)ccnc45)sc3n2)C1 (stereo not drawn) [Compound 60, 6-(3-(dimethylamino)pyrrolidin-1-yl)-N-(7-(trifluoromethyl)pyrazolo[1,5-a]pyrimidin-3-yl)thieno[2,3-b]pyridine-2-carboxamide] | 1000 to 9000 nM |
